Source: the PolyMetriX glass transition set
± gives the standard deviation of the reports.

First: *c1cccc(Oc2cccc(Oc3cccc(N4C(=O)c5c(c(-c6ccccc6)c(-c6ccc(Oc7ccc(Oc8ccc(-c9c(-c%10ccccc%10)c%10c(c(-c%11ccccc%11)c9-c9ccccc9)C(=O)N(*)C%10=O)cc8)cc7)cc6)c(-c6ccccc6)c5-c5ccccc5)C4=O)c3)c2)c1 (repeat unit)
Second: *c1cccc(Oc2cccc(Oc3cccc(N4C(=O)c5ccc(Oc6ccc(Sc7ccc(Oc8ccc9c(c8)C(=O)N(*)C9=O)cc7)cc6)cc5C4=O)c3)c2)c1 (repeat unit)
The glass transition temperature of the first is higher: 238.00 °C for the first, 190.50 °C for the second.

First: *CC(*)(C)C(=O)OCCCCCC(=O)Oc1ccc(OC(=O)c2ccc(OCCCCCC)cc2)cc1 (repeat unit)
Second: *CC(*)(C)C(=O)Oc1ccc(C(=O)Oc2ccc(Oc3ccccc3)cc2)cc1 (repeat unit)
The glass transition temperature of the first is lower: 44.00 °C for the first, 74.00 °C for the second.

Compared with `*CC1CC(CNC(=O)c2cccc(C(=O)N*)c2)CC(C(C)(C)C)C1` (repeat unit), `*CC(*)c1ccccc1C(=O)OCC(C)C` (repeat unit) is lower in glass transition temperature: 209.00 °C for the first, 127.00 °C for the second.

First: *Oc1c(C)cc(*)cc1C(C)CCCCCCCC (repeat unit)
Second: *[Si](*)(CCCC)CCCCC (repeat unit)
The glass transition temperature of the first is higher: 20.00 °C for the first, -26.00 °C for the second.

Going from `*CCCCCCCCCCCCCCCCCCCCOC(=O)CC(=O)O*` (repeat unit) to `*CCOC(=O)CCCCCCCCC(=O)OCCOC(=O)c1ccc(C(=O)O*)cc1` (repeat unit), the glass transition temperature rises from -35.10 °C to -6.50 °C.

Going from `*C(=O)c1ccc2c(c1)C(=O)N(c1ccc(Oc3c(C)cc(C(c4cc(C)c(Oc5ccc(N6C(=O)c7ccc(*)cc7C6=O)cc5)c(C)c4)c4cccc5ccccc45)cc3C)cc1)C2=O` (repeat unit) to `*C(=O)c1ccc2c(c1)C(=O)N(c1ccc(-c3cc(-c4ccc(OCCCC#N)cc4)cc(-c4ccc(N5C(=O)c6ccc(*)cc6C5=O)cc4)n3)cc1)C2=O` (repeat unit), the glass transition temperature rises from 272.00 °C to 342.00 °C.

Compared with `*c1ccc(Cc2ccc(N3C(=O)c4ccc(Oc5ccc(C(C)(C)c6ccc(Oc7ccc8c(c7)C(=O)N(*)C8=O)cc6)cc5)cc4C3=O)cc2)cc1` (repeat unit), `*c1ccc(Oc2ccc(C(=O)c3ccc(C(=O)c4ccc(Oc5ccc(N6C(=O)c7ccc(-c8ccc9c(c8)C(=O)N(*)C9=O)cc7C6=O)cc5)cc4)cc3)cc2)cc1` (repeat unit) is higher in glass transition temperature: 217.00 °C for the first, 245.00 °C for the second.

First: *Oc1cccc(S(=O)(=O)c2ccc(*)cc2)c1 (repeat unit)
Second: *Oc1ccc(S(=O)(=O)c2ccc(Oc3ccc(/C=C/c4ccc(*)cc4)cc3)cc2)cc1 (repeat unit)
The glass transition temperature of the first is lower: 175.00 °C for the first, 234.50 °C for the second.

Compared with `*/C=C/C1CC(*)C(F)(F)C1(F)OC(F)(F)C(F)(F)C(F)(F)F` (repeat unit), `*CC(*)(F)C(=O)OCCC(F)(F)C(F)(F)C(F)(F)C(F)(F)F` (repeat unit) is lower in glass transition temperature: 77.00 °C for the first, 6.00 °C for the second.

First: *c1ccc(Cc2ccc(N3C(=O)c4ccc(Oc5ccc6c(c5)C(=O)N(*)C6=O)cc4C3=O)c(C(C)(C)C)c2)cc1C(C)(C)C (repeat unit)
Second: *c1ccc(-c2ccc(N3C(=O)c4ccc(-c5ccc6c(c5)C(=O)N(*)C6=O)cc4C3=O)cc2C(F)(F)F)c(C(F)(F)F)c1 (repeat unit)
The glass transition temperature of the first is lower: 216.00 °C for the first, 323.8 ± 24 °C for the second.

First: *CC(*)OC(=O)C(C)(C)C(C)C(C)C (repeat unit)
Second: *C(C)C(*)C(=O)OC(C)C (repeat unit)
The glass transition temperature of the first is lower: 55.00 °C for the first, 149.00 °C for the second.

Going from `*Oc1cccc(*)c1` (repeat unit) to `*c1cccc(Oc2cccc(-n3c(=O)c4cc5c(=O)n(*)c(=O)c5cc4c3=O)c2)c1` (repeat unit), the glass transition temperature rises from 53.00 °C to 285.2 ± 2.5 °C.

First: */C(C#N)=C/c1cc(OCCCCCCCCCC)c(/C=C(\C#N)c2cc(OCCCCCCCCCC)c(*)cc2OC)cc1OC (repeat unit)
Second: *[O][Sn]([CH2]CCC)([CH2]CCC)[O]C(=O)CCCCC(*)=O (repeat unit)
The glass transition temperature of the first is higher: 198.00 °C for the first, 110.00 °C for the second.

Going from `*CC(O)COc1ccc(C(C)(C)c2ccc(OCC(O)COc3cccc(NC(=O)CCCC(=O)Nc4cccc(O*)c4)c3)cc2)cc1` (repeat unit) to `*CCOCCOCCOc1ccc(C(=O)Nc2cc(NC(=O)c3ccc(O*)cc3)cc(-c3nc4ccccc4[nH]3)c2)cc1` (repeat unit), the glass transition temperature rises from 111.00 °C to 165.00 °C.

Going from `*C(=O)Nc1ccc(C2(c3ccc(N4C(=O)c5ccc(*)cc5C4=O)cc3)CCC(CC)CC2)cc1` (repeat unit) to `*C(=O)Nc1ccc(Oc2cccc(Oc3ccc(NC(=O)c4ccc5c(c4)C(=O)N(c4ccc(Oc6cccc(Oc7ccc(N8C(=O)c9ccc(*)cc9C8=O)cc7)c6C#N)cc4)C5=O)cc3)c2)cc1` (repeat unit), the glass transition temperature falls from 312.00 °C to 217.00 °C.

First: *C#Cc1cccc(C#C[SiH](*)c2ccccc2)c1 (repeat unit)
Second: *Oc1ccc(Oc2ccc(/C=N/CC/N=C/c3ccc(*)cc3)cc2)cc1 (repeat unit)
The glass transition temperature of the first is lower: 85.00 °C for the first, 101.00 °C for the second.

Going from `*CCCC(C)O[Si](C)(C)O*` (repeat unit) to `*CC(*)(CC(=O)OCC(C)C)C(=O)OCC(C)C` (repeat unit), the glass transition temperature rises from -81.00 °C to 125.00 °C.

First: *Oc1ccc(CC(NC(=O)CCc2ccc(OC(=O)CCCCC(*)=O)cc2)C(=O)OCCOCCOCC)cc1 (repeat unit)
Second: *CCOCCOCCOCCOCCOc1ccc(/C=C(\C)c2ccc(O*)cc2)cc1 (repeat unit)
The glass transition temperature of the first is lower: 15.00 °C for the first, 17.00 °C for the second.

Compared with `*c1ccc2c(c1)C(=O)N(c1cc(C(=O)Nc3ccc(C(c4ccc(NC(=O)c5ccc(C)c(N6C(=O)c7ccc(C(*)(C(F)(F)F)C(F)(F)F)cc7C6=O)c5)cc4)(C(F)(F)F)C(F)(F)F)cc3)ccc1C)C2=O` (repeat unit), `*c1cccc(C(F)(F)C(F)(F)C(F)(F)C(F)(F)C(F)(F)c2cccc(N3C(=O)c4ccc(Oc5ccc6c(c5)C(=O)N(*)C6=O)cc4C3=O)c2)c1` (repeat unit) is lower in glass transition temperature: 293.50 °C for the first, 157.00 °C for the second.

First: *Nc1cc(NC(=O)c2ccc(-c3ccc(C(*)=O)cc3)cc2)cc(-c2nnc(-c3ccccn3)o2)c1 (repeat unit)
Second: *c1ccc(NC(=O)c2ccc(OCCOCCOc3ccc(C(=O)Nc4ccc5[nH]c(*)nc5c4)cc3)cc2)cc1 (repeat unit)
The glass transition temperature of the first is lower: 120.00 °C for the first, 175.00 °C for the second.

First: *c1ccc(Oc2ccc(C(C)(C)c3ccc(Oc4ccc(-c5nnc(*)n5-c5ccc(S(C)(=O)=O)cc5)cc4)cc3)cc2)cc1 (repeat unit)
Second: *c1cccc(P(=O)(c2ccc(Oc3ccc(C45CC6CC(CC(C6)C4)C5)cc3)cc2)c2cccc(-n3c(=O)c4cc5c(=O)n(*)c(=O)c5cc4c3=O)c2)c1 (repeat unit)
The glass transition temperature of the first is lower: 230.00 °C for the first, 330.00 °C for the second.

Compared with `*Oc1ccc(-c2cc(-c3ccccc3)c(-c3ccc(OC(=O)c4ccc(C(*)=O)cc4-c4ccccc4)cc3)c(-c3ccccc3)c2-c2ccccc2)cc1` (repeat unit), `*Oc1ccc(/N=C/C=N/c2ccc(OC(=O)NC3CC(C)(C)CC(C)(CNC(*)=O)C3)cc2)cc1` (repeat unit) is lower in glass transition temperature: 225.00 °C for the first, 62.00 °C for the second.

For `*O[Si](*)(C)OCCOCCOCCOCCOCCOCCOCCOCCOC` (repeat unit), the glass transition temperature was -78.00 °C.
